Data reported in patent US12122811B2, “BDNF mimetic peptide amphiphiles” (Northwestern University, priority 2018, dated 2024).
Positions of bridges follow the written chain, without caps; N, C: chain ends. Non-standard residues stand in square brackets, D forms with d. Residues, ends and D or L forms follow the SMILES beside them. Chains are numbered I, II in the order given. *: point of attachment. PEG6 = NCCOCCOCCOCCOCCOCCOCCC(=O)O; Palmitoyl = CCCCCCCCCCCCCCCC(=O)*

Assays:
[1] = Dynamic light scattering (DLS); assay type: physicochemical; details: BDNF PA at 100 mol %
Protocol: 2.2.2. Dynamic Light Scattering (DLS). Measurements were performed on a Malvern Zetasizer Nano ZSP light scattering spectrometer. Samples were prepared as previously described. During the sample measurement, the temperature was kept at 25° C. The sample was equilibrated for 30 seconds before each measurement was taken. The duration of each measurement was 10 seconds and the measurement angle was 173° backscatter. The attenuator was determined by the instrument automatically, as was the number of accumulations for each run. Each measurement run was repeated 3 times.

cortical neurons [2] = assay: Infiltration and maturation of cortical neurons on 3D PA gel scaffolds; assay type: cell-based, mouse; details: neurons on gels, one week
Protocol: Gels were made using annealed PAs prepared with methods described herein 1. BDNF native protein or BDNF peptide were incorporated by mixing at 10 nM or 0.5 uM respectively, with E2 Filler PA gel at 1 wt % while it was in its liquid state. Silicon isolators with adhesive (Invitrogen) were placed on PDL coated glass coverslips. 70 μL of PA liquid was pipetted into the circular silicon well and a Transwell insert was placed flush with the top of the well of the silicon insert. This step ensured a flat, even thickness for all gels. Gelling solution comprised of 125 mM NaCl, 3 mM KCl, and 25 mM CaCl2 was pipetted into the Transwell insert and allowed to slowly soak down into the material from the top. The insert prevented the gel from swelling more than the thickness of the silicon isolator. All gels were incubated at 37° C. for 5 min before removing the Transwell insert.
Infiltration Study. Gels were prepared as described in 2.1.2. Gels were then rinsed with media one time before cells were seeded on top at a density of approximately 42,000 cells/well. Cells were cultured for one week in vitro. Half of the gels were analyzed by patch clamp analysis (see section 3.4.9. Other gels were fixed with 4% PFA to perform infiltration studies. Cell were stained for MAP2, TUJ-1 and DAPI using immunocytochemistry methods described previously. Confocal microscopy was used to make z-stack reconstructions of each gel. The MultiMeasure function in the ROI manager of ImageJ was used to measure the depth of pixels for each channel which was then plotted as intensity vs depth in the gel. The average intensity of MAP2 was measured by averaging the mean intensities obtained from maximum intensity projections of z-stacks images of gels.

cortical neurons [3] = assay: Whole-cell current-clamp (patch clamp) recordings of neurons on PA gels; assay type: cell-based, mouse; details: neurons on gels up to one week; relative to E2 Filler PA
Protocol: Patch Clamp. Whole-cell current-clamp recordings were made from visually identified primary cultured neurons using inverted Olympus IX51 microscope equipped with a 40× objective. Recording pipettes were made of glass capillaries using a horizontal Sutter P-1000 puller yielding a 3-5 MΩ resistance pipette when filled with standard intracellular solution containing (in mM): 120 K-MeSO4, 10 KCl, 10 HEPES, 10 Na2-phosphocreatine, 4 Mg-ATP, 0.4 Na3-GTP, pH 7.3; 285-290 mOsm. Gels with neurons were continuously perfused with standard oxygenated aCSF bath solution (in mM): 125 NaCl, 26 NaHCO3, 2.5 KCl, 1.25 NaH2PO4, 1 MgSO4, 25 glucose, 2 CaCl2, pH 7.4 at 32-34° C. Whole-cell current-clamp data was acquired using an […] amplifier (Molecular Devices, USA) and digitized at 10 kHz (filtered at 3 kHz) with the neurons held at −65 mV. Resting membrane potential was measured immediately after breaking into the cell. Input resistance was calculated as the slope of the voltage-current curve using 500 ms current steps from −50 pA to 30 pA at 10 pA steps. There were no differences in resting membrane potentials or input resistance between the three groups. […] AP threshold was calculated where the first derivative of the up phase of the trace equals 5 mV/ms. […] Data was analyzed using MATLAB protocols designed specifically for these experiments.

[4] = tested on: primary mouse cortical neurons; assay: Morphometric analysis of neurites (MAP2, SMI312 immunocytochemistry); assay type: cell-based; details: 24 h
Protocol: For morphometric analysis and cell viability assays, cells were cultured in 24 or 48 well plates at a density of 25,000 or 40,000 cells/well respectively, for three days before being treated. Cells were then treated for 24 hours, 3 days or 7 DIV. Samples were fixed in 4% PFA for 15 min (20 min for gels) at room temperature (RT) for immunofluorescence studies.
Immunofluorescence. For immunofluorescence, fixed samples (4% PFA for 15 min at RT) were incubated with primary antibodies overnight and Alexa 488 or Alexa 555 secondary antibodies (1:2000, Invitrogen) were used for 2 h at room temperature. The following primary antibodies were used: mouse anti-Tuj-1 (neuronal marker 1:4000, BioLegend), rabbit anti-Tuj-1 (neuronal marker, 1:4000, BioLegend) rabbit anti-MAP2 (marker for mature neurons 1:2000, BioLegend), mouse anti-SMI312 (axonal filament marker 1:1000, BioLegend), rabbit anti-Synaptophysin (marker for synaptic vesicles, 1:1000, Abcam) and DAPI (nuclear stain, 1:2000, Invitrogen). If not already in a glass bottom plate (MatTek), the preparations were mounted with Immu-Mount (Thermo Scientific) for imaging.
Imaging and Morphometric Analysis. Throughout the experiments, a digital camera (Nikon) mounted on a tissue culture microscope was used to take bright field images of cells. Nikon A1R confocal laser-scanning microscope with GaAsP detectors was used to visualize and image fluorescent preparations. Images were processed using an ImageJ (National Institutes of Health) plugin. Confocal images were reconstructed by NIS Elements Advanced Research Microscope Imaging software (version 4.20) or Imaris program (version 8.1, Bitplane Scientific software) for 3D interactive data viewing with normal or shadow projections of cells screened under Nikon A1R confocal laser-scanning microscope with GaAsP detectors.
For morphometric analysis, NeuronJ was used to trace and measure neuronal extensions.^4 For quantification of number of primary neurites and neurite length, a minimum of 60 randomly selected cells were analyzed with a minimum of 2 independent batches of culture for each condition. The images were arranged in Adobe Photoshop (v.7.0), with adjustments for contrast, brightness and color balance to obtain optimal visual reproduction of data.

## CCCCCCCCCCCCCCCC(=O)N[C@H](C(=O)N[C@H](C(=O)N[C@@H](C)C(=O)N[C@@H](C)C(=O)N[C@@H](CCC(=O)O)C(=O)N[C@@H](CCC(=O)O)C(=O)N[C@@H](CCC(=O)O)C(=O)N[C@@H](CCC(=O)O)C(=O)NCCOCCOCCOCCOCCOCCOCCC(=O)NCCCC[C@@H]1NC(=O)[C@H]2CCCN2C(=O)[C@H](CCCNC(=N)N)NC(=O)[C@H](CCCCN)NC(=O)[C@H](CCCCN)NC1=O)C(C)C)C(C)C [BDNF PA, RKK(aK)(dP)-(PEG6 Spacer)-EEEEAAVV-C16 (SEQ ID NO: 5)] (I: Palmitoyl-VVAAEEEE[PEG6] / II: cyclo(KKKR[dP]); amide I:C-II:1)
[1]
  micelle diameter (DLS): ~12 nm
Cortical neurons [2]
  distance that neurites infiltrated from the top of the scaffold: 179.7±6.0 μm
  infiltration distance relative to all the other conditions: nearly four-and-a-half times higher
  normalized average of MAP2 intensity: 0.64±0.15
Cortical neurons [3]
  number of action potentials: higher number of action potentials
[4]
  neurite number, BDNF PA versus native BDNF protein: no statistical differences
[4]; vs control conditions
  number of primary neurites: positive tendency
  number of secondary neurites: significant increase
[4]; vs native BDNF protein and control conditions
  total dendrite and axon length: significant increase
